Results published in ChEMBL document CHEMBL3627659, “Development of novel dipeptide-like rhodesain inhibitors containing the 3-bromoisoxazoline warhead in a constrained conformation” (Bioorg Med Chem, 2015).
Activity calls are given as the source filed them. The rule behind the calls is not given here.

Tests used:
[1] = target: Procathepsin L (Homo sapiens) (UniProt P07711); test: Inhibition of human cathepsin L using Cbz-Phe-Arg-AMC at 100 uM measured by fluorescence spectrophotometry
[2] = target: Cathepsin B (Homo sapiens) (UniProt P07858); test: Inhibition of human cathepsin B using Cbz-Phe-Arg-AMC at 100 uM measured by fluorescence spectrophotometry
[3] = target: Rhodesain (Trypanosoma brucei rhodesiense) (UniProt Q95PM0); test: Inhibition of Trypanosoma brucei rhodesiense rhodesain using Cbz-Phe-Arg-7-amino-4-methylcoumarin assessed as substrate hydrolysis at 100 uM measured by fluorescence analysis for 10 mins
[4] = target: Rhodesain (Trypanosoma brucei rhodesiense, UniProt Q95PM0); test: Inhibition of Trypanosoma brucei rhodesiense rhodesain using Cbz-Phe-Arg-7-amino-4-methylcoumarin assessed as substrate hydrolysis measured by fluorescence analysis for 10 mins
[5] = test system: Trypanosoma brucei brucei; test: Antitrypanosomal activity against Trypanosoma brucei brucei TC 221 after 72 hrs by Alamar Blue assay; format: functional, organism-based; conditions: TC 221, 72 h
[6] = test system: Trypanosoma brucei brucei; test: Antitrypanosomal activity against Trypanosoma brucei brucei TC 221 after 48 hrs by Alamar Blue assay; format: functional, organism-based; conditions: TC 221, 48 h
[7] = Cytotoxicity against mouse J774.1 cells incubated for 24 to 48 hrs by Alamar Blue assay; format: cell-based

Rhodesain (Trypanosoma brucei rhodesiense), sequence (Q95PM0 1-450): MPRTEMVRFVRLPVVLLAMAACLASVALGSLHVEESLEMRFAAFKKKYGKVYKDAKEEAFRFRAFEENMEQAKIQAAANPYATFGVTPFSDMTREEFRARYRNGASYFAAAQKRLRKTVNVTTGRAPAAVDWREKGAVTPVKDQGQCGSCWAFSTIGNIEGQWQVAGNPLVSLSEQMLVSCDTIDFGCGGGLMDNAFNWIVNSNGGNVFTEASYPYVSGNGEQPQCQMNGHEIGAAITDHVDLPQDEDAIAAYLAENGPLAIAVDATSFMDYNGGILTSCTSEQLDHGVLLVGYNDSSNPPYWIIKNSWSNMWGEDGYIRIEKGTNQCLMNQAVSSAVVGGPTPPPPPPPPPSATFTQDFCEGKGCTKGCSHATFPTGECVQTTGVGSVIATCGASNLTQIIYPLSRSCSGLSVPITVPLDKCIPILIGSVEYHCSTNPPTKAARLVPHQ
Rhodesain, sequence (Q95PM0 whole entry): as the sequence (Q95PM0 1-450) above
Procathepsin L (Homo sapiens), sequence (P07711 114-333 limits assumed): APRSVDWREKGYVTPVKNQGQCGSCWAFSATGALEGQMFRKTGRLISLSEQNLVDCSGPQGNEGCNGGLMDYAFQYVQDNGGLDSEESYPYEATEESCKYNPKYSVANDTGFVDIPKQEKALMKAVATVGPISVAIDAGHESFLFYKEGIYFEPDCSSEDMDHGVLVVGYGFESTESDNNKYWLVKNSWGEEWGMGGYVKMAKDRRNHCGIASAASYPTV

Row | Compound | inhibition [1] | inhibition [2] | inhibition [3] | Ki [4] | IC50 [5] | IC50 [6] | IC50 [7]
1 | C=CCOC(=O)N[C@@H](Cc1ccccc1)C(=O)N1C[C@@H]2ON=C(Br)[C@@H]2C1 | inactive | inactive | > 40% | 16.6 µM |  |  | 
2 | C=CCOC(=O)N[C@@H](Cc1ccccc1)C(=O)N1C[C@@H]2C(Br)=NO[C@@H]2C1 | inactive | inactive | > 40% | 15.1 µM |  |  | 
3 | C=CCOC(=O)N[C@@H](CCc1ccccc1)C(=O)N1C[C@@H]2ON=C(Br)[C@@H]2C1 |  | inactive | > 40% | 3.35 µM |  |  | 
4 | C=CCOC(=O)N[C@@H](CCc1ccccc1)C(=O)N1C[C@@H]2C(Br)=NO[C@@H]2C1 |  | inactive | > 40% | 2.73 µM |  |  | 
5 | C=CCOC(=O)N[C@@H](CC(C)C)C(=O)N1C[C@@H]2ON=C(Br)[C@@H]2C1 | inactive | inactive | > 40% | 9.05 µM |  |  | 
6 | C=CCOC(=O)N[C@@H](CC(C)C)C(=O)N1C[C@@H]2C(Br)=NO[C@@H]2C1 | inactive | inactive | > 40% | 8.52 µM |  |  | 
7 | O=C(N[C@@H](CCc1ccccc1)C(=O)N1C[C@@H]2C(Br)=NO[C@@H]2C1)OCc1ccc([N+](=O)[O-])cc1 |  | inactive | > 40% | 6.81 µM |  |  | 
8 | O=C(N[C@@H](CCc1ccccc1)C(=O)N1C[C@@H]2C(Br)=NO[C@@H]2C1)OCC1CC1 |  | inactive | 15.7% |  |  |  | 
9 | C=CCOC(=O)N[C@@H](Cc1ccccc1)C(=O)N1CC2ON=C(Br)C2C1 (mixture of isomers) | inactive | inactive | > 40% | 16.8 µM |  |  | 
10 | O=C(N[C@@H](Cc1ccccc1)C(=O)N1CC2ON=C(Br)C2C1)OCc1ccccc1 (mixture of isomers) | inactive | inactive | > 40% | 8.41 µM | 18.2 µM | 16.4 µM | > 100 µM
11 | CC(C)(C)OC(=O)N[C@@H](Cc1ccccc1)C(=O)N1CC2ON=C(Br)C2C1 (mixture of isomers) | inactive | inactive | > 40% | 17.7 µM |  |  | 
12 | C=CCOC(=O)N[C@@H](CCc1ccccc1)C(=O)N1CC2ON=C(Br)C2C1 (mixture of isomers) |  | inactive | > 40% | 2.62 µM |  |  | 
13 | C=CCOC(=O)N[C@@H](CC(C)C)C(=O)N1CC2ON=C(Br)C2C1 (mixture of isomers) | inactive | inactive | > 40% | 8.36 µM |  |  | 
14 | CC(C)C[C@H](NC(=O)OC(C)(C)C)C(=O)N1CC2ON=C(Br)C2C1 (mixture of isomers) | inactive | inactive | > 40% | 13.6 µM |  |  | 
15 | CC(C)(C)OC(=O)N[C@@H](CCc1ccccc1)C(=O)N1CC2ON=C(Br)C2C1 (mixture of isomers) |  | inactive | 5.8% |  |  |  | 
16 | CC(C)C[C@H](NC(=O)OCc1ccccc1)C(=O)N1CC2ON=C(Br)C2C1 (mixture of isomers) |  | inactive | 8.3% |  |  |  | 
17 | CCCOC(=O)N[C@@H](CC(C)C)C(=O)N1CC2ON=C(Br)C2C1 (mixture of isomers) | inactive | inactive | 11.3% |  |  |  | 
18 | CCCOC(=O)N[C@@H](CCc1ccccc1)C(=O)N1CC2ON=C(Br)C2C1 (mixture of isomers) |  | inactive | 15.3% |  |  |  | 
19 | CCCOC(=O)N[C@@H](Cc1ccccc1)C(=O)N1CC2ON=C(Br)C2C1 (mixture of isomers) | inactive | inactive | 13.1% |  |  |  | 
20 | O=C(N[C@@H](CCc1ccccc1)C(=O)N1CC2ON=C(Br)C2C1)OCc1ccccc1 (mixture of isomers) |  | inactive | inactive |  |  |  | 
